Measured values reported in patent US8952024B2, “Herbicidal pyrimidone derivatives” (E I du Pont de Nemours and Company, priority 2009, dated 2015).
Where two headings read alike, the source gives them in different places.

Columns and labels:
Format in all cases: in vivo
rice (Oryza sativa) = assay: Test B flooded paddy test; conditions: Oryza sativa
In short: (§1)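 Flooded-pot test: water raised to 3 cm above soil when treating, compound put in the water, level unchanged thereafter. Plants were at 2 leaves. Readout after 13 to 15 days, visual, relative to controls; 0 signifies no effect and 100 complete control.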

[1] = test system: ducksalad (Heteranthera limosa); assay: Test B flooded paddy test; conditions: Heteranthera limosa, 360 h
In short: as §1

[2] = test system: barnyardgrass (Echinochloa crus-galli); assay: Test B flooded paddy test; conditions: Echinochloa crus-galli, 360 h
In short: as §1

[3] = test system: umbrella sedge (Cyperus difformis); assay: Test B flooded paddy test; conditions: Cyperus difformis, 360 h
In short: as §1

[4] = test system: wheat (Triticum aestivum); assay: Test A pre-/postemergence plant response; conditions: Triticum aestivum, 240 h; for plant injury at 125 g/ha: 125 g ai/ha; for plant injury at 500 g/ha: 500 g ai/ha
In short: (§2)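 Formulated test chemicals (non-phytotoxic solvent, surfactant) were sprayed onto soil right after planting and simultaneously onto young plants at one to two leaves, 2 to 10 cm tall. Plants stayed in the greenhouse about ten days; injury was then visually scored against untreated controls, from 0 (no effect) to 100 (complete control).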

[5] = test system: pigweed (Amaranthus retroflexus); assay: Test A pre-/postemergence plant response; conditions: Amaranthus retroflexus, 240 h; for pest or weed control at 125 g/ha: 125 g ai/ha; for pest or weed control at 500 g/ha: 500 g ai/ha
In short: as §2

[6] = test system: large crabgrass (Digitaria sanguinalis); assay: Test A pre-/postemergence plant response; conditions: Digitaria sanguinalis, post-emergence, 240 h, Postemergence, approx. ten days
In short: as §2

`COc1ccc(-n2c(-c3ccccc3)ncc(C(=O)C3=C(O)CCCC3=O)c2=O)cc1` [Compound 4, 5-[(2-hydroxy-6-oxo-cyclohexen-1-yl)carbonyl]-3-(4-methoxyphenyl)-2-phenyl-4(3H)-pyrimidinone] was tested, and the plant injury at 250 g/ha (rice (Oryza sativa); 250 g ai/ha, flooded paddy test, visual rating on 0 to 100 scale (0 no effect, 100 complete control) after 13 to 15 days, read-out: Plant response rating, Flood, Rice) was 0%, the plant injury at 31 g/ha (rice (Oryza sativa); Flood (flooded paddy test), 31 g ai/ha, scale of 0 to 100 where 0 is no effect and 100 is complete control, 13 to 15 days, read-out: Plant response rating, Rice) was 0% and the plant injury at 62 g/ha (rice (Oryza sativa); Flood (flooded paddy test), 62 g ai/ha, scale 0 to 100, 0 is no effect, 100 is complete control, 13 to 15 days, read-out: Plant response rating, Rice) was 0%. For the same compound, the plant injury at 125 g/ha (rice (Oryza sativa); Flood (flooded paddy test), 125 g ai/ha, scale 0 to 100, 0 is no effect, 100 is complete control, 13 to 15 days, read-out: Plant response rating, Rice) was 0%, the pest or weed control at 250 g/ha ([1]; 250 g ai/ha, flooded paddy test, visual rating on 0 to 100 scale (0 no effect, 100 complete control) after 13 to 15 days, read-out: Plant response rating, Flood, Ducksalad) was 85% and the pest or weed control at 31 g/ha ([1]; Flood (flooded paddy test), 31 g ai/ha, scale of 0 to 100 where 0 is no effect and 100 is complete control, 13 to 15 days, read-out: Plant response rating, Ducksalad) was 20%. For the same compound, the pest or weed control at 62 g/ha ([1]; Flood (flooded paddy test), 62 g ai/ha, scale 0 to 100, 0 is no effect, 100 is complete control, 13 to 15 days, read-out: Plant response rating, Ducksalad) was 40%, the pest or weed control at 125 g/ha ([1]; Flood (flooded paddy test), 125 g ai/ha, scale 0 to 100, 0 is no effect, 100 is complete control, 13 to 15 days, read-out: Plant response rating, Ducksalad) was 75% and the pest or weed control at 250 g/ha ([2]; 250 g ai/ha, flooded paddy test, visual rating on 0 to 100 scale (0 no effect, 100 complete control) after 13 to 15 days, read-out: Plant response rating, Flood, Barnyardgrass) was 20%. For the same compound, the pest or weed control at 31 g/ha ([2]; Flood (flooded paddy test), 31 g ai/ha, scale of 0 to 100 where 0 is no effect and 100 is complete control, 13 to 15 days, read-out: Plant response rating, Barnyardgrass) was 0%, the pest or weed control at 62 g/ha ([2]; Flood (flooded paddy test), 62 g ai/ha, scale 0 to 100, 0 is no effect, 100 is complete control, 13 to 15 days, read-out: Plant response rating, Barnyardgrass) was 0% and the pest or weed control at 125 g/ha ([2]; Flood (flooded paddy test), 125 g ai/ha, scale 0 to 100, 0 is no effect, 100 is complete control, 13 to 15 days, read-out: Plant response rating, Barnyardgrass) was 0%. The pest or weed control at 250 g/ha ([3]; 250 g ai/ha, flooded paddy test, visual rating on 0 to 100 scale (0 no effect, 100 complete control) after 13 to 15 days, read-out: Plant response rating, Flood, Sedge, Umbrella) was 90%, the pest or weed control at 31 g/ha ([3]; Flood (flooded paddy test), 31 g ai/ha, scale of 0 to 100 where 0 is no effect and 100 is complete control, 13 to 15 days, read-out: Plant response rating, Sedge, Umbrella) was 50% and the pest or weed control at 62 g/ha ([3]; Flood (flooded paddy test), 62 g ai/ha, scale 0 to 100, 0 is no effect, 100 is complete control, 13 to 15 days, read-out: Plant response rating, Sedge, Umbrella) was 65%. It also gave a pest or weed control at 125 g/ha ([3]; Flood (flooded paddy test), 125 g ai/ha, scale 0 to 100, 0 is no effect, 100 is complete control, 13 to 15 days, read-out: Plant response rating, Sedge, Umbrella) of 80%, a plant injury at 125 g/ha ([4]; post-emergence, Postemergence, visual injury, 0 to 100 scale (0 no effect, 100 complete control), approx. ten days, read-out: Wheat plant response rating) of 0% and a plant injury at 500 g/ha ([4]; post-emergence, Postemergence, 0 to 100 scale, 0 = no effect, 100 = complete control, approx. ten days, read-out: Plant response rating, Wheat) of 60%. The plant injury at 125 g/ha ([4]; pre-emergence, Preemergence, 0 to 100 scale, 0 = no effect, 100 = complete control, read-out: Plant response rating, Wheat) was 0%, the plant injury at 500 g/ha ([4]; pre-emergence, Preemergence, visual injury, 0 to 100 scale (0 no effect, 100 complete control), approx. ten days, read-out: Plant response rating, Wheat) was 20% and the pest or weed control at 125 g/ha ([5]; post-emergence, Postemergence, visual injury, 0 to 100 scale (0 no effect, 100 complete control), approx. ten days, read-out: Pigweed plant response rating) was 100%. It also gave a pest or weed control at 500 g/ha ([5]; post-emergence, Postemergence, 0 to 100 scale, 0 = no effect, 100 = complete control, approx. ten days, read-out: Plant response rating, Pigweed) of 100%, a pest or weed control at 125 g/ha ([5]; pre-emergence, Preemergence, 0 to 100 scale, 0 = no effect, 100 = complete control, read-out: Plant response rating, Pigweed) of 90% and a pest or weed control at 500 g/ha ([5]; pre-emergence, Preemergence, visual injury, 0 to 100 scale (0 no effect, 100 complete control), approx. ten days, read-out: Plant response rating, Pigweed) of 90%. For the same compound, the pest or weed control at 125 g/ha ([6]; 125 g ai/ha, visual injury, 0 to 100 scale (0 no effect, 100 complete control), read-out: Crabgrass, Large plant response rating) was 70% and the pest or weed control at 500 g/ha ([6]; 500 g ai/ha, 0 to 100 scale, 0 = no effect, 100 = complete control, read-out: Plant response rating, Crabgrass, Large) was 90%.
